From patent US20240132431A1, “METHOD FOR ALKYLATING ACIDIC FUNCTIONAL GROUP” (Chugai Seiyaku Kabushiki Kaisha, priority 2021, published 2024)

Biological target: T1, Bcl-2 protein (Recombinant Human Bcl-2 Protein) (Homo sapiens, UniProt P10415)
T1 construct: purchased Novus NBP2-34889
Experiment: Binding evaluation of mixture library compounds to Bcl-2 using AS-MS (affinity selection mass spectrometry)
Details: AS-MS on the mixture of 1200 library compounds, ASMS Ratio(%)=(A−C)/B×100; for ASMS ratio (%) n = 1: replicate n = 1; for ASMS ratio (%) n = 2: replicate n = 2
Method in brief: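 ASMS Ratio (%) was calculated as (A−C)/B×100, where A is the protein sample after SEC, B the protein-free sample without SEC and C the protein-free sample after SEC. Each compound was at […] in a 1200-member pool with 20 μM Bcl-2, incubated 1 h at 23° C.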

T1 sequence (P10415 whole entry): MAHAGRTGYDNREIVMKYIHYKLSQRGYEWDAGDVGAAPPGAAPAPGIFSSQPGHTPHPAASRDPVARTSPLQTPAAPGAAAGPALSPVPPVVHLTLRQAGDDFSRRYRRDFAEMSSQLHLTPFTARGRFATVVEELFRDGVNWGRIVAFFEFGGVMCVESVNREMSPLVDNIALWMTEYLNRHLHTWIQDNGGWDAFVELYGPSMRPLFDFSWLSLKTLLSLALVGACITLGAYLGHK

SMILES | ASMS ratio (%) n = 1 [%] | ASMS ratio (%) n = 2 [%]
CCOc1cncc(-c2ccc(CN3CCN(c4ccc(C(=O)N(C)CC56CC7CC(CC(C7)C5)C6)nn4)CC3)c(CC)c2)c1 [B3A076-01, N-(1-Adamantylmethyl)-6-[4-[[4-(5-ethoxypyridin-3-yl)-2-ethylphenyl]methyl]piperazin-1-yl]-N-methylpyridazine-3-carboxamide] | 6.5 | −0.9
CCOc1cncc(-c2ccc(CN3CCN(c4ccc(C(=O)N(C)CC56CC7CC(CC(C7)C5)C6)nn4)CC3)c(OC)c2)c1 [B3A080-01, N-(1-Adamantylmethyl)-6-[4-[[4-(5-ethoxypyridin-3-yl)-2-methoxyphenyl]methyl]piperazin-1-yl]-N-methylpyridazine-3-carboxamide] | 1.7 | −1.8
CCOc1cncc(-c2cc(CN3CCN(c4ccc(C(=O)N(C)CC56CC7CC(CC(C7)C5)C6)nn4)CC3)cc(OCC)c2)c1 [B3A082-01, N-(1-Adamantylmethyl)-6-[4-[[3-ethoxy-5-(5-ethoxypyridin-3-yl)phenyl]methyl]piperazin-1-yl]-N-methylpyridazine-3-carboxamide] | −0.9 | 4.4
CCOc1cccc(-c2cc(CN3CCN(c4ccc(C(=O)N(C)CC56CC7CC(CC(C7)C5)C6)nn4)CC3)cc(OC(C)C)c2)c1 [B3A083-01, N-(1-Adamantylmethyl)-6-[4-[[3-(3-ethoxyphenyl)-5-propan-2-yloxyphenyl]methyl]piperazin-1-yl]-N-methylpyridazine-3-carboxamide] | 3.9 | −18.6
CCOc1cncc(-c2cc(CN3CCN(c4ccc(C(=O)N(C)CC56CC7CC(CC(C7)C5)C6)nn4)CC3)cc(OC(C)C)c2)c1 [B3A084-01, N-(1-Adamantylmethyl)-6-[4-[[3-(5-ethoxypyridin-3-yl)-5-propan-2-yloxyphenyl]methyl]piperazin-1-yl]-N-methylpyridazine-3-carboxamide] | −17.6 | −7.4
CCOc1cccc(-c2cc(OC)c(CN3CCN(c4ccc(C(=O)N(C)CC56CC7CC(CC(C7)C5)C6)nn4)CC3)c(OC)c2)c1 [B3A085-01, N-(1-Adamantylmethyl)-6-[4-[[4-(3-ethoxyphenyl)-2,6-dimethoxyphenyl]methyl]piperazin-1-yl]-N-methylpyridazine-3-carboxamide] | 5.3 | −7.1
CCOc1cncc(-c2cc(OC)c(CN3CCN(c4ccc(C(=O)N(C)CC56CC7CC(CC(C7)C5)C6)nn4)CC3)c(OC)c2)c1 [B3A086-01, N-(1-Adamantylmethyl)-6-[4-[[4-(5-ethoxypyridin-3-yl)-2,6-dimethoxyphenyl]methyl]piperazin-1-yl]-N-methylpyridazine-3-carboxamide] | −2.7 | −1.9
CCOc1cncc(-c2cc(CN3CCN(c4ccc(C(=O)N(C)CC56CC7CC(CC(C7)C5)C6)nn4)CC3)cc(C(F)(F)F)c2)c1 [B3A088-01, N-(1-Adamantylmethyl)-6-[4-[[3-(5-ethoxypyridin-3-yl)-5-(trifluoromethyl)phenyl]methyl]piperazin-1-yl]-N-methylpyridazine-3-carboxamide] | 2.5 | 2.4
CCOc1cncc(-c2cc(CN3CCN(c4ccc(C(=O)N(C)CC56CC7CC(CC(C7)C5)C6)nn4)CC3)cc(OC(F)(F)F)c2)c1 [B3A090-01, N-(1-Adamantylmethyl)-6-[4-[[3-(5-ethoxypyridin-3-yl)-5-(trifluoromethoxy)phenyl]methyl]piperazin-1-yl]-N-methylpyridazine-3-carboxamide] | 5.8 | −0.2
CCOc1cncc(-c2ccc(CN3CCN(c4ccc(C(=O)N(C)CC56CC7CC(CC(C7)C5)C6)nn4)CC3)c3ccccc23)c1 [B3A092-01, N-(1-Adamantylmethyl)-6-[4-[[4-(5-ethoxypyridin-3-yl)naphthalen-1-yl]methyl]piperazin-1-yl]-N-methylpyridazine-3-carboxamide] | 1.1 | −1.9
CCOc1cncc(-c2csc(CN3CCN(c4ccc(C(=O)N(C)CC56CC7CC(CC(C7)C5)C6)nn4)CC3)c2)c1 [B3A094-01, N-(1-Adamantylmethyl)-6-[4-[[4-(5-ethoxypyridin-3-yl)thiophen-2-yl]methyl]piperazin-1-yl]-N-methylpyridazine-3-carboxamide] | 3.7 | 0.5
CCOc1cccc(C#Cc2ccccc2CN2CCN(c3ccc(C(=O)N(C)CC45CC6CC(CC(C6)C4)C5)nn3)CC2)c1 [B3A095-01, N-(1-Adamantylmethyl)-6-[4-[[2-[2-(3-ethoxyphenyl)ethynyl]phenyl]methyl]piperazin-1-yl]-N-methylpyridazine-3-carboxamide] | −4.9 | −3.5
CCOc1cncc(C#Cc2ccccc2CN2CCN(c3ccc(C(=O)N(C)CC45CC6CC(CC(C6)C4)C5)nn3)CC2)c1 [B3A096-01, N-(1-Adamantylmethyl)-6-[4-[[2-[2-(5-ethoxypyridin-3-yl)ethynyl]phenyl]methyl]piperazin-1-yl]-N-methylpyridazine-3-carboxamide] | 7.7 | 2.4
CCOc1cccc(-c2ccc(C(C)N3CCN(c4ccc(C(=O)N(C)CC56CC7CC(CC(C7)C5)C6)cc4)CC3)cc2)c1 (stereo not drawn) [B3A097-01, N-(1-Adamantylmethyl)-4-[4-[1-[4-(3-ethoxyphenyl)phenyl]ethyl]piperazin-1-yl]-N-methylbenzamide] | 1.8 | −5.9
CCOc1cncc(-c2ccc(C(C)N3CCN(c4ccc(C(=O)N(C)CC56CC7CC(CC(C7)C5)C6)cc4)CC3)cc2)c1 (stereo not drawn) [B3A098-01, N-(1-Adamantylmethyl)-4-[4-[1-[4-(5-ethoxypyridin-3-yl)phenyl]ethyl]piperazin-1-yl]-N-methylbenzamide] | 0.6 | 3.0

Further lines, results first:

ASMS ratio (%) n = 1 [%] | ASMS ratio (%) n = 2 [%] | SMILES
−5.8 | −16.0 | CCOc1cccc(-c2ccc(CN3CCN(c4ccc(C(=O)N(C)CC56CC7CC(CC(C7)C5)C6)nn4)CC3)c(CC)c2)c1 [B3A075-01, N-(1-Adamantylmethyl)-6-[4-[[4-(3-ethoxyphenyl)-2-ethylphenyl]methyl]piperazin-1-yl]-N-methylpyridazine-3-carboxamide]
4.1 | −2.8 | CCOc1cccc(-c2ccc(CN3CCN(c4ccc(C(=O)N(C)CC56CC7CC(CC(C7)C5)C6)nn4)CC3)cc2F)c1 [B3A077-01, N-(1-Adamantylmethyl)-6-[4-[[4-(3-ethoxyphenyl)-3-fluorophenyl]methyl]piperazin-1-yl]-N-methylpyridazine-3-carboxamide]
4.5 | −1.5 | CCOc1cncc(-c2ccc(CN3CCN(c4ccc(C(=O)N(C)CC56CC7CC(CC(C7)C5)C6)nn4)CC3)cc2F)c1 [B3A078-01, N-(1-Adamantylmethyl)-6-[4-[[4-(5-ethoxypyridin-3-yl)-3-fluorophenyl]methyl]piperazin-1-yl]-N-methylpyridazine-3-carboxamide]
−5.8 | 5.4 | CCOc1cccc(-c2ccc(CN3CCN(c4ccc(C(=O)N(C)CC56CC7CC(CC(C7)C5)C6)nn4)CC3)c(OC)c2)c1 [B3A079-01, N-(1-Adamantylmethyl)-6-[4-[[4-(3-ethoxyphenyl)-2-methoxyphenyl]methyl]piperazin-1-yl]-N-methylpyridazine-3-carboxamide]
13.4 | −14.2 | CCOc1cccc(-c2cc(CN3CCN(c4ccc(C(=O)N(C)CC56CC7CC(CC(C7)C5)C6)nn4)CC3)cc(OCC)c2)c1 [B3A081-01, N-(1-Adamantylmethyl)-6-[4-[[3-ethoxy-5-(3-ethoxyphenyl)phenyl]methyl]piperazin-1-yl]-N-methylpyridazine-3-carboxamide]
0.4 | 1.4 | CCOc1cccc(-c2cc(CN3CCN(c4ccc(C(=O)N(C)CC56CC7CC(CC(C7)C5)C6)nn4)CC3)cc(C(F)(F)F)c2)c1 [B3A087-01, N-(1-Adamantylmethyl)-6-[4-[[3-(3-ethoxyphenyl)-5-(trifluoromethyl)phenyl]methyl]piperazin-1-yl]-N-methylpyridazine-3-carboxamide]
−5.5 | −7.2 | CCOc1cccc(-c2cc(CN3CCN(c4ccc(C(=O)N(C)CC56CC7CC(CC(C7)C5)C6)nn4)CC3)cc(OC(F)(F)F)c2)c1 [B3A089-01, N-(1-Adamantylmethyl)-6-[4-[[3-(3-ethoxyphenyl)-5-(trifluoromethoxy)phenyl]methyl]piperazin-1-yl]-N-methylpyridazine-3-carboxamide]
−1.0 | −16.5 | CCOc1cccc(-c2ccc(CN3CCN(c4ccc(C(=O)N(C)CC56CC7CC(CC(C7)C5)C6)nn4)CC3)c3ccccc23)c1 [B3A091-01, N-(1-Adamantylmethyl)-6-[4-[[4-(3-ethoxyphenyl)naphthalen-1-yl]methyl]piperazin-1-yl]-N-methylpyridazine-3-carboxamide]
−3.8 | 0.0 | CCOc1cccc(-c2csc(CN3CCN(c4ccc(C(=O)N(C)CC56CC7CC(CC(C7)C5)C6)nn4)CC3)c2)c1 [B3A093-01, N-(1-Adamantylmethyl)-6-[4-[[4-(3-ethoxyphenyl)thiophen-2-yl]methyl]piperazin-1-yl]-N-methylpyridazine-3-carboxamide]
